The text below walks through data of patent US20050239873A1 (priority 1999, published 2005).

Data set [1] can be described thus: Stability in plasma. In kind it is in vitro ADME, mouse. The conditions noted are these: for stability: 37° C., 60 min. On the procedure: (§1) For analysis of samples, two volumes of cold methanol-acetonitrile (50:50, v/v) were added to portions of plasma, culture medium, or cell extract. The preparations were mixed and then centrifuged to obtain clear supernatants, which were dried at room temperature by compressed air. The residues were dissolved in the mobile phase, and a portion was injected onto the HPLC column.
(§2) The HPLC equipment consisted of a Hewlett Packard 1050 ChemStation with a fluorescence detector (Agilent 100 series). […] The mobile phase was methanol:ammonium acetate buffer (87:13 v/v; 0.2 M; pH 5.8, adjusted with HCl). The flow rate was 1 ml/min. The column elute was monitored fluorometrically at an excitation wavelength of 232 nm and an emission wavelength of 418 nm. The amounts of test compounds present in samples were determined from the peak areas.
(§3) Samples of mouse, rat, dog, and human plasma were incubated at 37° C. with and without addition of NaF (2.5 mg/ml) and EDTA (1 mg/ml). To these preparations, 2-OMe antimycin A1, 2-OMe antimcyin A2, 2-OMe antimycin A3, or 2-OMe antimycin A5, dissolved in methanol, was added to final concentrations of 500 ng/ml. Portions of plasma, taken at selected times after addition of the 2-OMe antimycin analog, were extracted and analyzed.
Similarly, the stability of 2-OMe antimycin A1, 2-OMe antimycin A2, […] in the plasma from mice and humans was evaluated at −80° C. From these preparations, portions were analyzed immediately; other portions were stored at -80° C. and analyzed after 1, 2, and 4 weeks.

A short description of data set [2]: Stability in plasma. In kind it is in vitro ADME, dog. The following applies: 37° C., 60 min; for stability: presence of NaF/EDTA. The protocol:
as §1, §2, §3

Data set [3] concerns plasma proteins. As to the kind of experiment: Binding to plasma proteins (ultrafiltration). In kind it is in vitro ADME, human. The following applies: presence of NaF+EDTA, 1000 ng/ml. On the procedure: Solutions of 2-OMe antimycin A3 were diluted with plasma (dog or human) containing NaF+EDTA to final concentrations of 1.0 or 0.2 μg/ml. Controls were diluted with water to the same final concentrations. These preparations were incubated at 37° C. for 20 min, at which time portions were taken and placed in the sample reservoirs of Amicon Centrifree® ultrafiltration systems (Millipore Co., Bedford, Mass.). At 37° C., the filter systems were centrifuged until the reservoirs were dry. From each filtrate, portions were taken for analysis by HPLC. The amounts present were designated as “free drug” (F). The concentrations of the unfiltered solutions were also determined by triplicate analyses. This amount represented the “total drug” concentration (T). The percentage of 2-OMe antimycin A3 bound to plasma proteins was calculated by the following formula: % bound=((T−F)/T)×100

In data set [4] the test system is RPMI-8226 cells. As to the kind of experiment: GI50 assay (MTT). The data set is classed as cell-based, human. The following applies: 48 h, MTT. The protocol: (§4) RPMI 8226 cells were grown in 96 well plates for 24 h prior to addition of 2-methoxy Antimycins. Antimycin stocks in DMSO were serially diluted in RPMI media. Cells were incubated for 48 h with compounds at final compound concentrations ranging from 10^−4 to 10^−8 M. MTT assays were performed in quadruplicate and percent growth inhibitions were calculated as (A570 (control cells)—A570 (treated cells))/A570 (control cells). The GI50 was extrapolated from semi-log plots of the dose response for each compound. […] After 72 h drug exposures, 1 μCi/ml [^3H]-thymidine was added to wells. Cells were incubated for an additional 24 h, and then transferred to GF/C filter plates (Packard) using a plate washer. Filters were dried, added to scintillant, and counted in a TopCount scintillation counter (Packard). Drug response was expressed as the percentage of vehicle-treated controls, and each value shown as the average of three determinations.

The test system of data set [5] is NCI-H929 myeloma cells. Description: [3H]-thymidine incorporation assay. The following applies: 72 h drug exposure. The data set is classed as cell-based, human. On the procedure: as §4
For data set [6], the system named is RPMI-8226 myeloma cells. Description: [3H]-thymidine incorporation assay. In kind it is cell-based, human. The protocol: as §4
Background: Uptake of a labelled nucleoside into DNA is a usual measure of proliferation.

The test system of data set [7] is U266 myeloma cells. Description: [3H]-thymidine incorporation assay. The data set is classed as cell-based, human. The conditions noted are these: 72 h drug exposure. The protocol:
as §4

The subject of data set [8] is RPMI-8226 myeloma cell line. As to the kind of experiment: O2 consumption with a Clark electrode. The data set is classed as cell-based, human. On the procedure: Respiratory rates of both cell lines were maintained through repeated additions of 10 μM 2-OMeA, to a final concentration of 90 μM. […] Real-time glucose consumption and lactate production by TAMH cells grown on microcarrier beads was monitored using a novel microsequential injection-lab on valve (μSI-LOV) system (Schulz et al., Analyst 127:1293-1298, 2002). […] Since 2-OMeA has no effect on cellular respiration at these concentrations, 2-OMeA induced aerobic glycolysis in TAMH cells. The glycolytic response to 2-OMeA was proportional to cellular BCl-xL protein expression.

The target of data set [9] is cytochrome bc1 (Bos taurus, UniProt P00157). The conditions noted are these: cited from earlier work.

For the compound `CCCCCC[C@H]1C(=O)O[C@H](C)[C@H](NC(=O)c2cccc(NC=O)c2OC)C(=O)O[C@@H](C)[C@@H]1OC(=O)CC(C)C` [2-OMeA1, 2-methoxy antimycin A1], the stability entry in data set [1] (presence of NaF/EDTA) is given as “substantially stable”; in [2] it was “unstable”. Further, the “amounts remaining after 4 weeks” value in [1] (-80° C., presence of NaF/EDTA) was found to be 96%; in [1] (−80° C., absence of NaF/EDTA) it was 78%. For the same compound, in [2] (absence of NaF/EDTA, 500 ng/ml), the added amount remaining turned out to be 61%. Moreover, in data set [3], the “Protein binding, Human” value was 99.5%. Also, halving of growth in [4] (GI50) required 8.56 µM.

Consider 2-methoxy antimycin A [2-OMeA], for which the half-maximal inhibitory concentration (IC50) in [5] was 10 µg/mL; in [6] (72 h drug exposure) it was 15 µg/mL; in data set [7] it was 5 µg/mL. The “IC50 relative to antimycin A” value in data set [6] (RPMI-8226, U266 and NCI-H929) was 100 fold. For the same compound, in data set [8] (repeated additions of 10 μM to a final concentration of 90 μM), the respiratory rate entry is recorded as “maintained”. For the same compound, in data set [9] (relative to antimycin A), the “reduction of oxidative phosphorylation inhibitory activity at complex III” value was 1000 fold.

In the case of antimycin A, the “50% growth inhibition (GI50)” value came to 200 ng/mL in data set [5], 100 ng/mL in data set [6] (72 h drug exposure) and 50 ng/mL in data set [7]. Besides, the dampening of respiration in data set [8] (10 μM) is listed as greater than 90%.

As for `CCCC[C@H]1C(=O)OC(C)[C@H](NC(=O)c2cccc(NC=O)c2OC)C(=O)O[C@@H](C)C1OC(=O)CC(C)C` (stereo partly drawn) [2-OMeA3, Antimycin A3 methyl ether], the values for the stability entry in [1] (presence of NaF/EDTA) and in data set [2] were “notable decreases in concentration” and “largely stable”, respectively. For the same compound, the “amounts remaining after 4 weeks” value in data set [1] (-80° C., presence of NaF/EDTA) was 90%; in data set [1] (−80° C., absence of NaF/EDTA), 45%. For the same compound, the “Protein binding, Human” value in data set [3] came to 99.9%. In data set [4] (Homo sapiens, RPMI-8226), this compound came in with a concentration for 50% growth inhibition (GI50) of 10.2 µM. Further, in [9], the “activity as an inhibitor of cytochrome bc1” value is “inactive”.

For orientation: GI50 means the concentration at which growth is held to half of that of the control. A high value points to lower sensitivity of the cells. In general, IC50 refers to the concentration needed to halve the response being measured. A higher IC50 goes with lower potency.
